# Assay results taken from PubChem BioAssay AID2060503 (Molecular Pharmacology Branch, DTP, NCI, 2025).
# System: 817829-284-R-J1-PDC complex spheroids, viability
# Assay: Anticancer human tumor 817829-284-R-J1-PDC patient-derived colon adenocarcinoma cell line growth inhibition [GQUAD]
# Conditions: for IC50: curve of first compound; for viability, T/C: stronger effect = lower value
# How it was run: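 Tumor cells were grown as complex spheroids with HUVEC endothelial cells and mesenchymal stem cells as stroma. G-quadruplex stabilizers were combined with targeted agents over half-log dilutions from near the clinical Cmax, or from 10 microM.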
# [1] = second compound 0.0316 µM, first compound 0.0316 µM
# [2] = second compound 0.0316 µM, first compound 0.1 µM
# [3] = second compound 0.0316 µM, first compound 0.316 µM
# [4] = second compound 0.0316 µM, first compound 1 µM
# [5] = second compound 0.0316 µM, first compound 3.16 µM
# [6] = second compound 0.0316 µM, first compound 10 µM
# [7] = second compound 0.1 µM, first compound 0.0316 µM
# [8] = second compound 0.1 µM, first compound 0.1 µM
# [9] = second compound 0.1 µM, first compound 0.316 µM
# [10] = second compound 0.1 µM, first compound 1 µM
# [11] = second compound 0.1 µM, first compound 3.16 µM
# [12] = second compound 0.1 µM, first compound 10 µM
# [13] = second compound 0.316 µM, first compound 0.0316 µM
# [14] = second compound 0.316 µM, first compound 0.1 µM
# [15] = second compound 0.316 µM, first compound 0.316 µM
# [16] = second compound 0.316 µM, first compound 1 µM
# [17] = second compound 0.316 µM, first compound 3.16 µM
# [18] = second compound 0.316 µM, first compound 10 µM
# [19] = second compound 1 µM, first compound 0.0316 µM
# [20] = second compound 1 µM, first compound 0.1 µM
# [21] = second compound 1 µM, first compound 0.316 µM
# [22] = second compound 1 µM, first compound 1 µM
# [23] = second compound 1 µM, first compound 3.16 µM
# [24] = second compound 1 µM, first compound 10 µM
# [25] = second compound 3.16 µM, first compound 0.0316 µM
# [26] = second compound 3.16 µM, first compound 0.1 µM
# [27] = second compound 3.16 µM, first compound 0.316 µM
# [28] = second compound 3.16 µM, first compound 1 µM
# [29] = second compound 3.16 µM, first compound 3.16 µM
# [30] = second compound 3.16 µM, first compound 10 µM
# [31] = second compound 10 µM, first compound 0.0316 µM
# [32] = second compound 10 µM, first compound 0.1 µM
# [33] = second compound 10 µM, first compound 0.316 µM
# [34] = second compound 10 µM, first compound 1 µM
# [35] = second compound 10 µM, first compound 3.16 µM
# [36] = second compound 10 µM, first compound 10 µM
# 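Note: spheroids exposed to agents for 7 days before readout.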
# 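Throughout, for viability, T/C: percent viability relative to DMSO vehicle control taken as 100%.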
structure (smiles),measurement,setting,value
COc1cccc2c1C(=O)c1c(O)c3c(c(O)c1C2=O)CC(O)(C(=O)CO)CC3OC1CC(N)C(O)C(C)O1 (stereo not drawn) + Cc1cnc(CNC(=O)c2c(=O)c3ccc(N4CCCN(C)CC4)nc3n3c2sc2ccccc23)cn1,IC50,second compound 0.0316 µM,< 31.6 nM
same,IC50,second compound 0.1 µM,< 31.6 nM
same,IC50,second compound 0.316 µM,< 31.6 nM
same,IC50,second compound 1 µM,< 31.6 nM
same,IC50,second compound 3.16 µM,< 31.6 nM
same,IC50,second compound 10 µM,< 31.6 nM
same,"viability, T/C",[1],50.1%
same,"viability, T/C",[2],28.6%
same,"viability, T/C",[3],25.7%
same,"viability, T/C",[4],7.54%
same,"viability, T/C",[5],0.23%
same,"viability, T/C",[6],0.16%
same,"viability, T/C",[7],27.2%
same,"viability, T/C",[8],26.8%
same,"viability, T/C",[9],17.2%
same,"viability, T/C",[10],9.6%
same,"viability, T/C",[11],0.27%
same,"viability, T/C",[12],0.19%
same,"viability, T/C",[13],21.8%
same,"viability, T/C",[14],24.4%
same,"viability, T/C",[15],18.2%
same,"viability, T/C",[16],6.76%
same,"viability, T/C",[17],0.15%
same,"viability, T/C",[18],0.22%
same,"viability, T/C",[19],19.9%
same,"viability, T/C",[20],21.5%
same,"viability, T/C",[21],18.9%
same,"viability, T/C",[22],8.23%
same,"viability, T/C",[23],0.07%
same,"viability, T/C",[24],0.08%
same,"viability, T/C",[25],17.8%
same,"viability, T/C",[26],16.4%
same,"viability, T/C",[27],13.9%
same,"viability, T/C",[28],7.35%
same,"viability, T/C",[29],0.11%
same,"viability, T/C",[30],0.11%
same,"viability, T/C",[31],0.07%
same,"viability, T/C",[32],0.12%
same,"viability, T/C",[33],0.16%
same,"viability, T/C",[34],0.12%
same,"viability, T/C",[35],0.19%
same,"viability, T/C",[36],0.18%
CC1COCCN1c1cc(-c2ccnn2C)c2ccnc(-c3ccn[nH]3)c2n1 (stereo not drawn) + Cc1cnc(CNC(=O)c2c(=O)c3ccc(N4CCCN(C)CC4)nc3n3c2sc2ccccc23)cn1,IC50,second compound 0.0316 µM,< 31.6 nM
same,IC50,second compound 0.1 µM,< 31.6 nM
same,IC50,second compound 0.316 µM,< 31.6 nM
same,IC50,second compound 1 µM,< 31.6 nM
same,IC50,second compound 3.16 µM,< 31.6 nM
same,IC50,second compound 10 µM,< 31.6 nM
same,"viability, T/C",[1],14.8%
same,"viability, T/C",[2],9.78%
same,"viability, T/C",[3],9.09%
same,"viability, T/C",[4],7.06%
same,"viability, T/C",[5],6.16%
same,"viability, T/C",[6],4.96%
same,"viability, T/C",[7],13.3%
same,"viability, T/C",[8],11.1%
same,"viability, T/C",[9],8.18%
same,"viability, T/C",[10],6.54%
same,"viability, T/C",[11],6.01%
same,"viability, T/C",[12],3.97%
same,"viability, T/C",[13],15%
same,"viability, T/C",[14],11.9%
same,"viability, T/C",[15],8.36%
same,"viability, T/C",[16],6.17%
same,"viability, T/C",[17],5.71%
same,"viability, T/C",[18],4.08%
same,"viability, T/C",[19],13.8%
same,"viability, T/C",[20],14.1%
same,"viability, T/C",[21],9.19%
same,"viability, T/C",[22],6.22%
same,"viability, T/C",[23],5.53%
same,"viability, T/C",[24],3.34%
same,"viability, T/C",[25],11.8%
same,"viability, T/C",[26],12.1%
same,"viability, T/C",[27],8.66%
same,"viability, T/C",[28],6.72%
same,"viability, T/C",[29],3.24%
same,"viability, T/C",[30],2.62%
same,"viability, T/C",[31],0.06%
same,"viability, T/C",[32],0.09%
same,"viability, T/C",[33],0.11%
same,"viability, T/C",[34],0.08%
same,"viability, T/C",[35],0.12%
same,"viability, T/C",[36],0.12%
CC1COCCN1c1cc(C2(O)CC3CCC(C2)O3)c2cnn(-c3ccn[nH]3)c2n1 (stereo not drawn) + CN(C)c1ccc(Nc2c3ccc(NC(=O)CCN4CCCC4)cc3nc3cc(NC(=O)CCN4CCCC4)ccc23)cc1,IC50,second compound 0.0316 µM,< 31.6 nM
same,IC50,second compound 0.1 µM,< 31.6 nM
same,IC50,second compound 0.316 µM,< 31.6 nM
same,IC50,second compound 1 µM,< 31.6 nM
same,IC50,second compound 3.16 µM,< 31.6 nM
same,IC50,second compound 10 µM,< 31.6 nM
same,"viability, T/C",[1],30%
same,"viability, T/C",[2],13.9%
same,"viability, T/C",[3],8.88%
same,"viability, T/C",[4],7.25%
same,"viability, T/C",[5],6.14%
same,"viability, T/C",[6],5.19%
same,"viability, T/C",[7],31.5%
same,"viability, T/C",[8],15.1%
same,"viability, T/C",[9],8.31%
same,"viability, T/C",[10],6.53%
same,"viability, T/C",[11],6.56%
same,"viability, T/C",[12],4.3%
same,"viability, T/C",[13],29.9%
same,"viability, T/C",[14],14.4%
same,"viability, T/C",[15],10.4%
same,"viability, T/C",[16],7.63%
same,"viability, T/C",[17],5.34%
same,"viability, T/C",[18],4.95%
same,"viability, T/C",[19],29.1%
same,"viability, T/C",[20],16.7%
same,"viability, T/C",[21],9.05%
same,"viability, T/C",[22],6.94%
same,"viability, T/C",[23],7.14%
same,"viability, T/C",[24],4.24%
same,"viability, T/C",[25],28.9%
same,"viability, T/C",[26],13.8%
same,"viability, T/C",[27],9.17%
same,"viability, T/C",[28],7.04%
same,"viability, T/C",[29],7.35%
same,"viability, T/C",[30],4.31%
same,"viability, T/C",[31],20.2%
same,"viability, T/C",[32],13.6%
same,"viability, T/C",[33],7.79%
same,"viability, T/C",[34],6.03%
same,"viability, T/C",[35],5.19%
same,"viability, T/C",[36],3.21%
CC[C@@]1(O)C(=O)OCc2c1cc1n(c2=O)Cc2cc3c(CN(C)C)c(O)ccc3nc2-1 + CN(C)c1ccc(Nc2c3ccc(NC(=O)CCN4CCCC4)cc3nc3cc(NC(=O)CCN4CCCC4)ccc23)cc1,IC50,second compound 0.0316 µM,67.8 nM
same,IC50,second compound 0.1 µM,59 nM
same,IC50,second compound 0.316 µM,67.9 nM
same,IC50,second compound 1 µM,63.7 nM
same,IC50,second compound 3.16 µM,68.3 nM
same,IC50,second compound 10 µM,75.7 nM
same,"viability, T/C","second compound 0.0316 µM, first compound 0.000999 µM",80.2%
same,"viability, T/C","second compound 0.0316 µM, first compound 0.00316 µM",104%
same,"viability, T/C","second compound 0.0316 µM, first compound 0.00999 µM",94.8%
same,"viability, T/C",[1],65.9%
same,"viability, T/C","second compound 0.0316 µM, first compound 0.0999 µM",45.4%
same,"viability, T/C",[3],35.5%
same,"viability, T/C","second compound 0.1 µM, first compound 0.000999 µM",97.1%
same,"viability, T/C","second compound 0.1 µM, first compound 0.00316 µM",122%
same,"viability, T/C","second compound 0.1 µM, first compound 0.00999 µM",108%
same,"viability, T/C",[7],59.8%
same,"viability, T/C","second compound 0.1 µM, first compound 0.0999 µM",44.5%
same,"viability, T/C",[9],38.5%
same,"viability, T/C","second compound 0.316 µM, first compound 0.000999 µM",89.7%
same,"viability, T/C","second compound 0.316 µM, first compound 0.00316 µM",123%
same,"viability, T/C","second compound 0.316 µM, first compound 0.00999 µM",107%
same,"viability, T/C",[13],66.7%
same,"viability, T/C","second compound 0.316 µM, first compound 0.0999 µM",46.4%
same,"viability, T/C",[15],35.6%
same,"viability, T/C","second compound 1 µM, first compound 0.000999 µM",111%
same,"viability, T/C","second compound 1 µM, first compound 0.00316 µM",108%
same,"viability, T/C","second compound 1 µM, first compound 0.00999 µM",105%
same,"viability, T/C",[19],62.9%
same,"viability, T/C","second compound 1 µM, first compound 0.0999 µM",45.9%
same,"viability, T/C",[21],34%
same,"viability, T/C","second compound 3.16 µM, first compound 0.000999 µM",114%
same,"viability, T/C","second compound 3.16 µM, first compound 0.00316 µM",99.9%
same,"viability, T/C","second compound 3.16 µM, first compound 0.00999 µM",101%
same,"viability, T/C",[25],67.7%
same,"viability, T/C","second compound 3.16 µM, first compound 0.0999 µM",41.5%
same,"viability, T/C",[27],32.4%
same,"viability, T/C","second compound 10 µM, first compound 0.000999 µM",102%
same,"viability, T/C","second compound 10 µM, first compound 0.00316 µM",101%
same,"viability, T/C","second compound 10 µM, first compound 0.00999 µM",84%
same,"viability, T/C",[31],65.8%
same,"viability, T/C","second compound 10 µM, first compound 0.0999 µM",45.6%
same,"viability, T/C",[33],30.3%
